Test results published in patent US20170305861A1, “HETEROARYL COMPOUNDS COMPRISING NITROGEN AND USE THEREOF” (ImmunoMet Therapeutics, Inc, priority 2016, published 2017).
pIC50: −log10 of the molar value. Where two headings read alike, the source gives them in different places.

Key:
[1] = system: A549 cell lines (lung cancer cell lines); test: Oxygen Consumption Rate (OCR) of cells, corrected for cell viability (Cyquant); assay type: cell-based; details: Homo sapiens, read-out: OCR IC50
Experimental: The compounds synthesized by the methods disclosed in the Examples of the present invention have been measured on oxygen consumption rate and extracellular oxidation by the methods disclosed in the Test Examples below.
3×10^3 cells from A549 cell lines (purchased from ATCC-American Type Culture Collection), which are lung cancer cell lines, were placed on XF96 cell culture plates using RPMI1640 medium, and cultured at 37° C. in a 5% CO2 condition for 16 hours or more for attachment.
After 16 hours, the cells were treated with the drug at six different concentrations between 0 μM and 20 μM. After 24 hours, the existing medium was removed, and XF assay medium (15 mM D-Glucose, 15 mM sodium pyruvate, 4 mM L-Glutamine, pH 7.4) was added. The cells were retreated with the drug, and additionally cultured in Prep station at 37° C. in a non-CO2 condition for 1 hour. During the one-hour culture in the Prep station, a sensor cartridge was placed and calibrated for 20 minutes, and a plate with cells was placed to analyze the OCR. After the analysis was completed, XF96 plate was measured for cell viability using Cyquant assay, which measures the amount of intracellular DNA, in the following method. XF assay medium and the drug were removed, and the cells were placed in a cryogenic refrigerator (−80° C.) for at least 4 hours to be frozen. After the plate was made to be at room temperature, a solution where a lysis buffer and fluorescent GR dye were mixed was placed by 200 μL per well. After 20-minute reaction at room temperature, […] was measured between […] to calculate cell viability. A measured value of a well untreated with the drug was converted to 100% by reflecting cell viability to the OCR value. Concentration of a drug which inhibits the OCR value reflecting cell viability by 50% was calculated.

SK-MEL-28 cells = test: Inhibitory effect of cancer cell proliferation, MTT; assay type: cell-based; details: Homo sapiens
Experimental: The compounds prepared in the above Examples were evaluated for the inhibitory effect of cancer cell proliferation according to the method described in the following Test Example.
SK-MEL-28 cells derived from human melanoma were used, and the concentration (cell growth inhibitory concentration, IC50) at which cell growth was inhibited to 50% was measured using MTT reagent (3-(4,5-dimethylthiazole-2-yl)-2,5-[…] bromide) to confirm the inhibitory effect of cancer cell proliferation of the drugs synthesized in Examples 1 to 84.
First, SK-MEL-28 cells were cultured in 96-well plates at a cell number of about 1,250 in RPMI-1640 medium containing 11.1 mM glucose and 10% calf blood serum or 0.75 mM glucose and 10% calf blood serum, and were cultured for 16 hours. […] After treatment of the compound, MTT was added to the culture medium to confirm living cells and further cultured for 2 hours. The resulting formazane crystal was dissolved using dimethyl sulfoxide, and the absorbance of the solution was measured at 555 nm. After culturing for 72 hours, the number of viable cells in the well plate treated with the compounds synthesized in the Examples relative to the number of cells cultured in the well plate without treatment of the compounds was expressed as cell viability (%) according to each treatment concentration. By using this, a cell viability curve graph was prepared, and the inhibitory effect of cancer cell proliferation was confirmed by calculating the concentration of the compound whose growth was inhibited to 50% (IC50).

[2] = A549 cells, 24 h drug treatment, OCR value reflecting cell viability
[3] = SK-MEL-28, 72 h, read-out: SK-MEL-28 0.75 mM glucose Cell viability (IC50 μM)
[4] = SK-MEL-28, 72 h, read-out: SK-MEL-28 11.1 mM glucose Cell viability (IC50 μM)
[5] = SK-MEL-28, 0.75 mM glucose, 72 hours, MTT, read-out: SK-MEL-28 0.75 mM glucose Cell viability (IC50 μM)
[6] = SK-MEL-28, 11.1 mM glucose, 72 hours, MTT, read-out: SK-MEL-28 11.1 mM glucose Cell viability (IC50 μM)

pIC50 [1, 2]	IC50 (SK-MEL-28 cells; [5])	IC50 (SK-MEL-28 cells; [6])	Structure (SMILES)	pIC50 ([1]; A549, 24 h)	IC50 (SK-MEL-28 cells; [3])	IC50 (SK-MEL-28 cells; [4])
5.34			COc1ccc2cc3[n+](cc2c1OC)CCc1cc2c(cc1-3)OCO2 [Berberine, reference compound]			
			Nc1cc[n+](CCc2ccccc2)cc1 [Example 1, 4-Amino-1-phenethylpyridinium chloride]	5.96	17.9 µM	163 µM
6.40	20.7 µM	16.8 µM	Nc1cc[n+](CCc2ccccc2)c(Br)c1 [Example 7, 4-Amino-2-bromo-1-phenethylpyridinium chloride]			
5.92	4.7 µM	75.1 µM	Nc1cc[n+](CCc2ccccc2)c(N)c1 [Example 8, 2,4-Diamino-1-phenethylpyridinium bromide]			
6.15	11.9 µM	38.5 µM	Nc1cc[n+](CCc2ccccc2Cl)cc1 [Example 11, 4-Amino-1-(2-chlorophenethyl)pyridinium chloride]			
6.10	12.8 µM	55.5 µM	Nc1cc[n+](CCc2ccccc2Cl)c(N)c1 [Example 12, 2,4-Diamino-1-(2-chlorophenethyl)pyridinium bromide]			
4.78	129 µM	320 µM	c1ccc(CC[n+]2ccsc2)cc1 [Example 13, 3-Phenethylthiazol-3-ium iodide]			
	154 µM	277 µM	Nc1scc[n+]1CCc1ccccc1 [Example 14, 2-Amino-3-phenethylthiazol-3-ium iodide]			
5.64	6.8 µM	47 µM	Nc1cc[n+](CCc2ccccc2)c(C2CC2)c1 [Example 15, 4-amino-2-cyclopropyl-1-phenethylpyridinium iodide]			
5.82	8 µM	28.2 µM	Nc1cc[n+](CCc2ccccc2)c2ccccc12 [Example 16, 4-Amino-1-phenethylquinolinium iodide]			
5.38	6.9 µM	75.4 µM	CN(C)c1cc[n+](CCc2ccccc2)cc1 [Example 17, 4-(Dimethylamino)-1-phenethylpyridinium chloride]			
6.22	10.7 µM	16.9 µM	Nc1cc[n+](CCc2ccccc2)c(F)c1 [Example 18, 4-amino-2-fluoro-1-phenethylpyridinium chloride]			
6.30	5.9 µM	8.8 µM	Nc1cc[n+](CCc2ccc(Cl)c(Cl)c2)cc1 [Example 19, 4-Amino-1-(3,4-dichlorophenethyl)pyridinium chloride]			
5.74	14.7 µM	143 µM	Nc1cc[n+](Cc2ccccc2)cc1 [Example 20, 4-Amino-1-benzylpyridinium chloride]			
6.05	12.5 µM	27.4 µM	Nc1cc[n+](Cc2ccccc2)c(F)c1 [Example 21, 4-Amino-1-benzyl-2-fluoropyridinium chloride]			
5.10	18.5 µM	193 µM	c1ccc(CC[n+]2cccc3c2CCCC3)cc1 [Example 22, 1-Phenethyl-5,6,7,8-tetrahydroquinolinium chloride]			
6.05	5.4 µM	51.1 µM	Nc1cc[n+](CCCc2ccccc2)cc1 [Example 23, 4-Amino-1-(3-phenylpropyl)pyridinium chloride]			
6.10	4.4 µM	16.8 µM	Nc1cc[n+](CCCc2ccccc2)c(F)c1 [Example 24, 4-Amino-2-fluoro-1-(3-phenylpropyl)pyridinium chloride]			
5.80	15.5 µM	40.6 µM	Nc1cc[n+](CC(=O)c2ccc(OC(F)(F)F)cc2)cc1 [Example 25, 4-Amino-1-(2-oxo-2-(4-(trifluoromethoxy)phenyl)ethyl)pyridinium bromide]			

pIC50 [1, 2]	IC50 (SK-MEL-28 cells; [5])	IC50 (SK-MEL-28 cells; [6])	Structure (SMILES)	pIC50 ([1]; A549, 24 h)	IC50 (SK-MEL-28 cells; [3])	IC50 (SK-MEL-28 cells; [4])
5.62	102 µM	194 µM	Nc1cc[n+](CC(=O)c2ccccc2)cc1 [Example 26, 4-Amino-1-(2-oxo-2-phenylethyl)pyridinium bromide]			
			Nc1cc[n+](CCC2CCCCC2)cc1 [Example 27, 4-Amino-1-(2-cyclohexylethyl)pyridinium bromide]	6.40	1.7 µM	19.5 µM
6.40	0.7 µM	3.8 µM	Nc1cc[n+](CCC2CCCCC2)c(F)c1 [Example 28, 4-Amino-1-(2-cyclohexylethyl)-2-fluoropyridinium bromide]			
5.28	38.5 µM	162 µM	Nc1cc[n+](Cc2ccccc2)c(N)c1 [Example 29, 2,4-Diamino-1-benzylpyridinium chloride]			
6.05	8.2 µM	23 µM	Nc1cc[n+](Cc2ccccc2)c(Cl)c1 [Example 30, 4-Amino-1-benzyl-2-chloropyridinium chloride]			
5.37	56.2 µM	418 µM	Nc1cc[n+](CC2CC2)cc1 [Example 31, 4-Amino-1-(cyclopropylmethyl)pyridinium chloride]			
6.52	8.1 µM	38.8 µM	Nc1cc[n+](CCc2ccccc2)c(Cl)c1 [Example 32, 4-Amino-2-chloro-1-phenethylpyridinium chloride]			
5.82	7.7 µM	102 µM	CNc1cc[n+](CCc2ccccc2)cc1 [Example 33, 4-(Methylamino)-1-phenethylpyridinium chloride]			
5.96	7.9 µM	101 µM	CNc1cc[n+](Cc2ccccc2)cc1 [Example 34, 1-Benzyl-4-(methylamino)pyridinium chloride]			
6.30	5 µM	7.5 µM	Nc1cc[n+](Cc2ccc(Cl)c(Cl)c2)c(F)c1 [Example 35, 4-Amino-1-(3,4-dichlorobenzyl)-2-fluoropyridinium chloride]			
6.15	2.8 µM	13.1 µM	Nc1cc[n+](Cc2ccc(Cl)c(Cl)c2)cc1 [Example 36, 4-Amino-1-(3,4-dichlorobenzyl)pyridinium chloride]			
5.96	1.5 µM	10.8 µM	CNc1cc[n+](Cc2ccc(Cl)c(Cl)c2)cc1 [Example 37, 1-(3,4-Dichlorobenzyl)-4-(methylamino)pyridinium chloride]			
5.96	1.5 µM	11.7 µM	CN(C)c1cc[n+](Cc2ccc(Cl)c(Cl)c2)cc1 [Example 38, 1-(3,4-Dichlorobenzyl)-4-(dimethylamino)pyridinium chloride]			
	28.6 µM	215 µM	FC1(F)CCN(c2cc[n+](Cc3ccccc3)cc2)CC1 [Example 65, 1-benzyl-4-(4,4-difluoropiperidin-1-yl)pyridinium chloride]			
	131 µM	545 µM	c1ccc(C[n+]2ccc(NC3COC3)cc2)cc1 [Example 67, 1-Benzyl-4-(oxetan-3-ylamino)pyridinium chloride]			
	14.6 µM	132 µM	CC(C)(C)Nc1cc[n+](Cc2ccccc2)cc1 [Example 69, 1-benzyl-4-(tert-butylamino)pyridinium chloride]			
	169 µM	358 µM	Nc1cc[n+](CC2CC2)cn1 [Example 73, 4-Amino-1-(cyclopropylmethyl)pyrimidin-1-ium chloride]			
			Nc1cc[n+](Cc2ccc[se]2)cn1 [Example 74, 4-Amino-1-(selenophen-2-ylmethyl)pyrimidin-1-ium chloride]		74.4 µM	243 µM
